≈ marks a conversion by molar mass, not a printed value. Where “and” joins values, the source holds several entries; their conditions need not be identical. Equal values may be shown once. Read-outs that look alike come from different tables or passages of the source.
Tests used:
[1] = tested on: four mammalian cell lines (A549, BEAS-2B, HEK-293, J774A.1); assay: Mammalian cytotoxicity assays, summary over cell lines; type: cell-based; conditions: for IC50: read-out: IC50 values (range over cell lines); for cell survival: at 15.6 μg/mL, excluding auranofin with J774A.1
Excerpt: For cytotoxicity assays, the human embryonic kidney cell line (HEK-293) was purchased from the ATCC. The human bronchial epithelial cell line (BEAS-2B), the human lung carcinoma cell line (A549), and the mouse macrophage cell line (J774A.1) were generous gifts from Prof. David K. Orren (University of Kentucky, Lexington, Ky.), Prof. Markos Leggas (University of Kentucky, Lexington, Ky.), and Prof. David J. Feola (University of Kentucky, Lexington, Ky.), respectively. A549, HEK-293, and BEAS-2B cells were cultured in Dulbecco's Modified Eagle's Medium (DMEM, catalog #VWRL0100, VWR, Chicago, Ill.) supplemented with 10% fetal bovine serum (FBS; from ATCC) and 1% penicillin/streptomycin (from ATCC) at 37° C. with 5% CO2. The J774A.1 cells were cultured in DMEM (catalog #30-2002, ATCC, Manassas, Va.), which was also supplemented with FBS and antibiotics and grown at 37° C. with 5% CO2.
To examine whether the compounds are safe for human cells, cytotoxicity assays were done against four mammalian cell lines: HEK-293, A549, BEAS-2B, and J774A.1 cells. […] HEK-293 and J774A.1 cells were plated at 1×10^4 cells/mL while A549 and BEAS-2B were plated at 3×10^3 cells/mL. Compounds were tested in concentrations ranging from 0.06 to 15.6 μg/mL with final concentration of DMSO at 0.5% (FIG. 4A-D).

[2] = tested on: C. albicans ATCC 64124(R) (strain F); type: cell-based, Candida albicans; conditions: strain F = C. albicans ATCC 64124(R); MIC-0; 48 h; listed as printed beside letter G
[3] = tested on: C. auris AR Bank # 0388 (strain VII); assay: MIC determination (broth microdilution); type: cell-based, Candida auris; conditions: strain VII = C. auris AR Bank # 0388; MIC-0; 48 h (CAS read at 24 h)
[4] = tested on: A. flavus ATCC MYA-3631 (strain S); assay: MIC determination (broth microdilution); type: cell-based, Aspergillus flavus; conditions: strain S = A. flavus ATCC MYA-3631; MIC-0; 72 h at 35° C.
[5] = tested on: C. auris AR Bank # 0381 (strain I); assay: MIC determination (broth microdilution); type: cell-based, Candida auris; conditions: strain I = C. auris AR Bank # 0381; MIC-0; 48 h (CAS read at 24 h)
[6] = tested on: C. albicans ATCC 10231 (strain B) biofilm; assay: Prevention of biofilm formation (XTT); type: cell-based, Candida albicans; conditions: treated at 0 h, 90% decrease in metabolic activity (XTT)
[7] = tested on: A. nidulans ATCC 38163 (strain Q); assay: MIC determination (broth microdilution); type: cell-based, Aspergillus nidulans; conditions: strain Q = A. nidulans ATCC 38163; MIC-0; 72 h at 35° C.
[8] = tested on: C. neoformans CN3 (strain P); assay: MIC determination (broth microdilution); type: cell-based, Cryptococcus neoformans; conditions: MIC-0, 72 h at 35° C.
[9] = tested on: C. krusei ATCC 6258 (strain I); assay: MIC determination (broth microdilution); type: cell-based; conditions: strain I = C. krusei ATCC 6258; MIC-0; 48 h; listed as split over r16 and r17 (r17 printed beside letter J)
[10] = tested on: C. glabrata ATCC 2001 (strain H); assay: MIC determination (broth microdilution); type: cell-based, Candida glabrata; conditions: strain H = C. glabrata ATCC 2001; MIC-0; 48 h at 35° C.
[11] = tested on: C. neoformans ATCC MYA-85 (strain M); assay: MIC determination (broth microdilution); type: cell-based, Cryptococcus neoformans; conditions: strain M = C. neoformans ATCC MYA-85; MIC-0; 72 h at 35° C.
[12] = tested on: C. auris AR Bank # 0386 (strain V); assay: MIC determination (broth microdilution); type: cell-based, Candida auris; conditions: strain V = C. auris AR Bank # 0386; MIC-0; 48 h (CAS read at 24 h)
[13] = tested on: F. graminearum 053 (strain T); type: cell-based, Fusarium graminearum; conditions: strain T = F. graminearum 053; MIC-0; room temperature, 5 days
[14] = tested on: C. albicans ATCC MYA-2876(S) (strain E); assay: MIC determination (broth microdilution); type: cell-based, Candida albicans; conditions: strain E = C. albicans ATCC MYA-2876(S); MIC-0; 48 h; listed as printed beside letter F
[15] = tested on: fungal strains (Candida spp., Cryptococcus spp., Aspergillus spp., Fusarium spp.); assay: MIC determination, summary statements over the strain panel; type: cell-based; conditions: for overall assessment as antifungals: panel of twenty fungal strains (Table 1)
[16] = tested on: C. auris AR Bank # 0385 (strain IV); assay: MIC determination (broth microdilution); type: cell-based, Candida auris; conditions: strain IV = C. auris AR Bank # 0385; MIC-0; 48 h (CAS read at 24 h)
[17] = tested on: C. albicans ATCC MYA-2310(S) (strain D); assay: MIC determination (broth microdilution); type: cell-based, Candida albicans; conditions: strain D = C. albicans ATCC MYA-2310(S); MIC-0; 48 h; listed as printed beside letter E
[18] = tested on: C. auris AR Bank # 0387 (strain VI); assay: MIC determination (broth microdilution); type: cell-based, Candida auris; conditions: strain VI = C. auris AR Bank # 0387; MIC-0; 48 h (CAS read at 24 h)
[19] = tested on: C. neoformans CN1 (strain N); assay: MIC determination (broth microdilution); type: cell-based, Cryptococcus neoformans; conditions: MIC-0, 72 h at 35° C.

| Molecule | MIC [2] [µg/mL] | MIC (in parentheses) [2] [µM] | MIC [4] [µg/mL] | MIC (in parentheses) [4] [µM] | Biofilm prevention SMIC90 [6] [µg/mL] | MIC [8] [µg/mL] | MIC (in parentheses) [8] [µM] | MIC [9] [µg/mL] | MIC (in parentheses) [9] [µM] | MIC [10] [µg/mL] | MIC (in parentheses) [10] [µM] | MIC [11] [µg/mL] | MIC (in parentheses) [11] [µM] | MIC [13] [µg/mL] | MIC (in parentheses) [13] [µM] | MIC [14] [µg/mL] | MIC (in parentheses) [14] [µM] | MIC [17] [µg/mL] | MIC (in parentheses) [17] [µM] | MIC [19] [µg/mL] | other results |
| --- | --- | --- | --- | --- | --- | --- | --- | --- | --- | --- | --- | --- | --- | --- | --- | --- | --- | --- | --- | --- | --- |
| bis-[1,2-bis[(2S,5S)-2,5-dimethylphospholano]benzene]gold(I) [Compound 4] | 0.98 | 1.2 | 7.8 | 9.2 | 3.9 | 0.98 | 1.2 | 1.95 | 2.3 | 1.95 | 2.3 | 0.98 | 1.2 | 3.9 | 4.6 | 0.98 | 1.2 | 0.98 | 1.2 | 0.98 | IC50 ([1]; BEAS-2B, HEK-293, and J774A.1): 1.5 to 2 µM; cell survival [1]: no cell survival; MIC [3]: 1.95 µg/mL; MIC (in parentheses) [3]: 2.3 µM; MIC [5]: 0.98 µg/mL; MIC (in parentheses) [5]: 1.2 µM; MIC [7]: 3.9 µg/mL; MIC (in parentheses) [7]: 4.6 µM; MIC [12]: 1.95 µg/mL; MIC (in parentheses) [12]: 2.3 µM; overall assessment as antifungals [15]: great promise; antifungal activity class ([15]; two C. auris strains (K and L)): good (MIC = 3.9-7.8 μg/mL (good antifungal activity)); MIC [16]: 1.95 µg/mL; MIC (in parentheses) [16]: 2.3 µM; MIC [18]: 1.95 µg/mL; MIC (in parentheses) [18]: 2.3 µM; MIC (in parentheses) [19]: 1.2 µM |
| CC(=O)OC[C@H]1O[C@@H]([S-])[C@H](OC(C)=O)[C@@H](OC(C)=O)[C@@H]1OC(C)=O.CCP(CC)CC.[Au+] [Auranofin, auranofin, reference compound] | > 31.3 | > 46.1 | > 31.3 | > 46.1 | 7.8 | 3.9 | 5.7 | 31.3 | 46.1 | > 31.3 | > 46.1 | ≤ 0.06 | ≤ 0.1 | > 31.3 | > 46.1 | > 31.3 | > 46.1 | > 31.3 | > 46.1 | 3.9 | IC50 ([1]; A549, BEAS-2B, and HEK-293 cell lines): 0.5 to 3 µM; cell survival [1]: no cell survival; MIC [7]: 3.9 µg/mL; MIC (in parentheses) [7]: 5.7 µM; MIC ([15]; Candida spp.): > 31.3 µg/mL; antifungal activity ([15]; Candida spp.): no antifungal activity; antifungal activity class ([15]; Candida spp.): poor (MIC ≥15.6 μg/mL (poor antifungal activity)); MIC ([15]; two Aspergillus spp.): 3.9 µg/mL and 7.8 µg/mL; antifungal activity class ([15]; two Aspergillus spp.): good (MIC = 3.9-7.8 μg/mL (good antifungal activity)); MIC (in parentheses) [19]: 5.7 µM |
| bis-[1,2-bis[(2R,5R)-2,5-dimethylfphospholano]benzene]gold(1) [Compound 6] | 0.49 | 0.6 | 7.8 | 9.2 | 0.98 | 0.49 | 0.6 | 0.98 | 0.6 | 0.98 | 0.6 | 0.25 | 0.3 | 3.9 | 4.6 | 0.49 | 0.6 | 0.49 | 0.6 | 0.49 | cell survival [1]: no cell survival; MIC [3]: 1.95 µg/mL; MIC (in parentheses) [3]: 2.3 µM; MIC [5]: 0.98 µg/mL; MIC (in parentheses) [5]: 1.2 µM; MIC [7]: 3.9 µg/mL; MIC (in parentheses) [7]: 4.6 µM; MIC [12]: 3.9 µg/mL; MIC (in parentheses) [12]: 4.6 µM; overall assessment as antifungals [15]: great promise; MIC [16]: 1.95 µg/mL; MIC (in parentheses) [16]: 2.3 µM; MIC [18]: 1.95 µg/mL; MIC (in parentheses) [18]: 2.3 µM; MIC (in parentheses) [19]: 0.6 µM |
| C[C@@H]1[C@H](O)[C@@H](C)/C=C/C=C/C=C/C=C/C=C/C=C/C=C/[C@H](O[C@@H]2O[C@H](C)[C@@H](O)[C@H](N)[C@@H]2O)C[C@@H]2O[C@](O)(C[C@@H](O)C[C@@H](O)[C@H](O)CC[C@@H](O)C[C@@H](O)CC(=O)O[C@H]1C)C[C@H](O)[C@H]2C(=O)O [AmB, amphotericin B, reference compound] | 3.9 (≈ 4.22 µM) | 4.2 (≈ 3.88 µg/mL) | 31.3 (≈ 33.9 µM) | 33.8 (≈ 31.2 µg/mL) | 0.98 | 0.98 (≈ 1.06 µM) | 1.1 (≈ 1.02 µg/mL) | 3.9 (≈ 4.22 µM) | 4.2 (≈ 3.88 µg/mL) | 3.9 (≈ 4.22 µM) | 4.2 (≈ 3.88 µg/mL) | > 31.3 | > 33.9 | 7.8 (≈ 8.44 µM) | 8.4 (≈ 7.76 µg/mL) | 3.9 (≈ 4.22 µM) | 4.2 (≈ 3.88 µg/mL) | 7.8 (≈ 8.44 µM) | 8.4 (≈ 7.76 µg/mL) | 0.98 (≈ 1.06 µM) | MIC [3]: 1.95 µg/mL (≈ 2.11 µM); MIC (in parentheses) [3]: 2.1 µM (≈ 1.94 µg/mL); MIC [5]: 1.95 µg/mL (≈ 2.11 µM); MIC (in parentheses) [5]: 2.1 µM (≈ 1.94 µg/mL); MIC [12]: 1.95 µg/mL (≈ 2.11 µM); MIC (in parentheses) [12]: 2.1 µM (≈ 1.94 µg/mL); MIC values (range) ([15]; all filamentous fungi, Aspergillus spp. and Fusarium spp.): 7.8 to 31.3 µg/mL; MIC [16]: 1.95 µg/mL (≈ 2.11 µM); MIC (in parentheses) [16]: 2.1 µM (≈ 1.94 µg/mL); MIC [18]: 1.95 µg/mL (≈ 2.11 µM); MIC (in parentheses) [18]: 2.1 µM (≈ 1.94 µg/mL); MIC (in parentheses) [19]: 1.1 µM (≈ 1.02 µg/mL) |

— patent US11564394B2, “Distorted gold (I)-phosphine complexes and methods for use as antifungal agents” (University of Kentucky Research Foundation, priority 2019, dated 2023)
